Laboratory results published in US9572811B2, “Treatment of dry eye” (PRINCIPIA BIOPHARMA INC., priority 2012, dated 2017).
Where two headings read alike, the source gives them in different places.

Molecular target: human recombinant Btk (Homo sapiens (Human), UniProt Q06187)
Experiment: Btk enzymatic activity assay (Caliper-based kinase assay)
Type: biochemical
Conditions: read-out: IC50 (μm)
[1] = human recombinant Btk 2 nM, ATP 40 μM, peptide substrate 1 μM, room temperature 3 h

human recombinant Btk, sequence (Q06187 whole entry): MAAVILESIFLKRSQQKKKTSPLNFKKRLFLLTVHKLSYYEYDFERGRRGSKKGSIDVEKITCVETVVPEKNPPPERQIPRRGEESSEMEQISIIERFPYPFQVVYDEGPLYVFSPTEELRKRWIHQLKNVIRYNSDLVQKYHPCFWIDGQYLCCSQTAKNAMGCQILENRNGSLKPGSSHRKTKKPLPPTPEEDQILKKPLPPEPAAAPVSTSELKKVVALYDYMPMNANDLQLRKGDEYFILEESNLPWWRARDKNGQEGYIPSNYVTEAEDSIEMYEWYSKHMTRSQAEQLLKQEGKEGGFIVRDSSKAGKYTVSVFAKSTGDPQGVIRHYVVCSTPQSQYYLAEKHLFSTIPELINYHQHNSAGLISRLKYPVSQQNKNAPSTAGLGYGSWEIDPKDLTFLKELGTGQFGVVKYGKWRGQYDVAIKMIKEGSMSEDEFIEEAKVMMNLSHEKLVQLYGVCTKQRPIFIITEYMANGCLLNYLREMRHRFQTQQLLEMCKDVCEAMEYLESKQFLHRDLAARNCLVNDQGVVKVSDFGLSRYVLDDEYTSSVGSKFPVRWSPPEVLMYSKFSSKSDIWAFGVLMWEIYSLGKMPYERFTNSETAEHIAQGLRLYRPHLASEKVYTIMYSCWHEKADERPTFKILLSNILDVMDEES
Procedure: A Caliper-based kinase assay (Caliper Life Sciences, Hopkinton, Mass.) was used to measure inhibition of Btk kinase activity of a compound of Formula (I). […] The reaction was then terminated with EDTA, final concentration 20 mM and the phosphorylated reaction product was quantified on a Caliper Desktop Profiler (Caliper LabChip 3000). […] This value is presented as the IC50.

| Compound | IC50 [1] | IC50 |
| --- | --- | --- |
| CCOC(C)(C)C=C(C#N)C(=O)N1CCC[C@@H]1Cn1nc(-c2ccc(Oc3ccccc3)cc2F)c2c(N)ncnc21 [Cpd 89A, (R)-2-(2-((4-amino-3-(2-fluoro-4-phenoxyphenyl)-1H-pyrazolo[3,4-d]pyrimidin-1-yl)methyl)pyrrolidine-1-carbonyl)-4-ethoxy-4-methylpent-2-enenitrile] | 3100 nM | – |
| NC(=O)C(=CC1CC1)C(=O)N1CCC[C@@H](n2nc(-c3ccc(Oc4ccccc4)cc3)c3c(N)ncnc32)C1 [Cpd 30A, (R)-2-(3-(4-amino-3-(4-phenoxyphenyl)-1H-pyrazolo[3,4-d]pyrimidin-1-yl)piperidine-1-carbonyl)-3-cyclopropylacrylamide] | – | 1.7 nM |
| CNC(C)(C)C=C(C#N)C(=O)N1CCC[C@H]1Cn1nc(-c2ccc(Oc3cccc(F)c3F)cc2F)c2c(N)ncnc21 [Cpd 105B, (S)-2-(2-((4-amino-3-(4-(2,3-difluorophenoxy)-2-fluorophenyl)-1H-pyrazolo[3,4-d]pyrimidin-1-yl)methyl)pyrrolidine-1-carbonyl)-4-methyl-4-(methylamino)pent-2-enenitrile] | 25.5 nM | – |
| N#CC(=CC1CC1)C(=O)N1CCC(n2nc(-c3ccc(Oc4ccccc4)cc3)c3c(N)ncnc32)CC1 [Cpd 3, 2-(4-(4-amino-3-(4-phenoxyphenyl)-1H-pyrazolo[3,4-d]pyrimidin-1-yl)piperidine-1-carbonyl)-3-cyclopropylacrylonitrile] | 175 nM | – |
| CCOC(C)(C)C=C(C#N)C(=O)N1CCC[C@H]1Cn1nc(-c2ccc(Oc3ccccc3)cc2F)c2c(N)ncnc21 [Cpd 89B, (S)-2-(2-((4-amino-3-(2-fluoro-4-phenoxyphenyl)-1H-pyrazolo[3,4-d]pyrimidin-1-yl)methyl)pyrrolidine-1-carbonyl)-4-ethoxy-4-methylpent-2-enenitrile] | 6600 nM | – |
| [C-]#[N+]C(=CC1CC1)C(=O)N1CCC[C@@H](n2nc(-c3ccc(Oc4ccccc4)cc3F)c3c(N)ncnc32)C1 [Cpd 22B] | 2.6 nM | – |
| C[C@@H](Cn1nc(-c2ccc(Oc3ccccc3)cc2F)c2c(N)ncnc21)NC(=O)C(C#N)=CC1CC1 [Cpd 197B] | 32.5 nM | – |
| N#CC(=CC1CC1)C(=O)NC1CCC(n2nc(-c3ccc(Oc4ccccc4)cc3)c3c(N)ncnc32)CC1 (stereo not shown) [Cpd 11, N-((1s,4s)-4-(4-amino-3-(4-phenoxyphenyl)-1H-pyrazolo[3,4-d]pyrimidin-1-yl)cyclohexyl)-2-cyano-3-cyclopropylacrylamide] | 14 nM | – |
| COCCNC(C)(C)C=C(C#N)C(=O)N1CCC[C@H]1Cn1nc(-c2ccc(Oc3ccccc3)cc2F)c2c(N)ncnc21 [Cpd 88B, (S)-2-(2-((4-amino-3-(2-fluoro-4-phenoxyphenyl)-1H-pyrazolo[3,4-d]pyrimidin-1-yl)methyl)pyrrolidine-1-carbonyl)-4-((2-methoxyethyl)amino)-4-methylpent-2-enenitrile] | 29 nM | – |
| CC(C)(C=C(C#N)C(=O)N1CCC[C@@H]1Cn1nc(-c2ccc(Oc3ccccc3)cc2F)c2c(N)ncnc21)N1CCOCC1 [Cpd 95A, (R)-2-(2-((4-amino-3-(2-fluoro-4-phenoxyphenyl)-1H-pyrazolo[3,4-d]pyrimidin-1-yl)methyl)pyrrolidine-1-carbonyl)-4-methyl-4-morpholinopent-2-enenitrile] | 26.5 nM | – |
| CC(C)(C=C(C#N)C(=O)N1CCC[C@H]1Cn1nc(-c2ccc(Oc3ccccc3)cc2F)c2c(N)ncnc21)N1CCOCC1 [Cpd 95B, (S)-2-(2-((4-amino-3-(2-fluoro-4-phenoxyphenyl)-1H-pyrazolo[3,4-d]pyrimidin-1-yl)methyl)pyrrolidine-1-carbonyl)-4-methyl-4-morpholinopent-2-enenitrile] | 3.2 nM | – |

More lines, in order of falling IC50 [1], values ahead:

| IC50 [1] | Compound | IC50 |
| --- | --- | --- |
| 12 nM | CC(C)(C=C(C#N)C(=O)N1CCC[C@H]1Cn1nc(-c2ccc(Oc3ccccc3)cc2F)c2c(N)ncnc21)NC1CC1 [Cpd 87B, (S)-2-(2-((4-amino-3-(2-fluoro-4-phenoxyphenyl)-1H-pyrazolo[3,4-d]pyrimidin-1-yl)methyl)pyrrolidine-1-carbonyl)-4-(cyclopropylamino)-4-methylpent-2-enenitrile] | – |
| 6 nM | CN(C)C(C)(C)C=C(C#N)C(=O)N1CCC[C@@H]1Cn1nc(-c2ccc(Oc3cccc(F)c3F)cc2F)c2c(N)ncnc21 [Cpd 106A, (R)-2-(2-((4-amino-3-(4-(2,3-difluorophenoxy)-2-fluorophenyl)-1H-pyrazolo[3,4-d]pyrimidin-1-yl)methyl)pyrrolidine-1-carbonyl)-4-(dimethylamino)-4-methylpent-2-enenitrile] | – |
| 5 nM | N#CC(=CC1CC1)C(=O)N1CCC[C@@H]1Cn1nc(-c2ccc(Oc3c(F)cccc3F)cc2F)c2c(N)ncnc21 [Cpd 44A, (R)-2-(2-((4-amino-3-(2-fluoro-4-(2,6-difluorophenoxy)phenyl)-1H-pyrazolo[3,4-d]pyrimidin-1-yl)methyl)pyrrolidine-1-carbonyl)-3-cyclopropylacrylonitrile] | – |
| 3 nM | N#CC(=CC1CC1)C(=O)N1CCC[C@H]1Cn1nc(-c2ccc(Oc3c(F)cccc3F)cc2F)c2c(N)ncnc21 [Cpd 44B, (S)-2-(2-((4-amino-3-(2-fluoro-4-(2,6-difluorophenoxy)phenyl)-1H-pyrazolo[3,4-d]pyrimidin-1-yl)methyl)pyrrolidine-1-carbonyl)-3-cyclopropylacrylonitrile] | – |
| 1.5 nM | CN(C)C(C)(C)C=C(C#N)C(=O)N1CCC[C@H]1Cn1nc(-c2ccc(Oc3cccc(F)c3F)cc2F)c2c(N)ncnc21 [Cpd 106B, (S)-2-(2-((4-amino-3-(4-(2,3-difluorophenoxy)-2-fluorophenyl)-1H-pyrazolo[3,4-d]pyrimidin-1-yl)methyl)pyrrolidine-1-carbonyl)-4-(dimethylamino)-4-methylpent-2-enenitrile] | – |
| 1.3 nM | CNC(C)(C)C=C(C#N)C(=O)N1CCC[C@@H]1Cn1nc(-c2ccc(Oc3cccc(F)c3F)cc2F)c2c(N)ncnc21 [Cpd 105A, (R)-2-(2-((4-amino-3-(4-(2,3-difluorophenoxy)-2-fluorophenyl)-1H-pyrazolo[3,4-d]pyrimidin-1-yl)methyl)pyrrolidine-1-carbonyl)-4-methyl-4-(methylamino)pent-2-enenitrile] | – |
| 1 nM | COc1cc(-c2nn(CC3CCCN3C(=O)C(C#N)=CC3CC3)c3ncnc(N)c23)ccc1Oc1ccc(Cl)c(Cl)c1 (stereo not shown) [Cpd 5] | – |
| 0.7 nM | C[C@H](Cn1nc(-c2ccc(Oc3ccccc3)cc2F)c2c(N)ncnc21)NC(=O)C(C#N)=CC(C)(C)N [Cpd 188] | – |
